Like-named read-outs stand apart in the source and are kept apart here.
Tests used:
[1] = tested on: HHQ and PQS quinolone production in P. aeruginosa strain PA14; assay: Inhibition of HHQ and PQS quinolone production in P. aeruginosa strain PA14 (LC-MS/MS); format: cell-based, Pseudomonas aeruginosa; details: for inhibition at 1500 µM / inhibition at 1000 µM: Pseudomonas aeruginosa
Method: The production of PQS and HHQ by strain PA14 was performed in triplicate in 14-mL round bottom falcon tubes containing 3-mL cultures in LB medium. Tubes were incubated at 37° C. in an orbital shaker at 225 rpm. Cultures were inoculated with 15-hour culture in LB in order to obtain a starting OD600=0.05, with or without inhibitors added. For PQS and HHQ analysis, a 20 μl aliquot was taken at time points as indicated. Each sample was diluted with 180 μL of methanol containing the internal standard (100 μM of d^4-PQS or d^4-HHQ) and 2% acetic acid. The solution was then vertexed and centrifuged at 13,000 g for 5 minutes, and the supernatant was transferred to a 96-well plates for LC-MS/MS analysis. Bacterial growth was measured by recording OD600 at 20 h to provide the data in FIG. 7A.
Liquid chromatography tandem mass spectrometry (LC-MS/MS) was carried out on an Agilent Technologies 6410 triple quad LC-MS/MS system with autosampler in electrospray ionization (ESI) mode, with an Agilent Zorbax Eclipse XDB-C18 reverse phase column (50×4.6 mm, 5 μm) using a flow rate of 0.5 mL/minute and an isocratic mobile phase of 60% CH3CN in 0.1% aqueous formic acid over 5 minutes. Positive electrospray in MRM mode was employed to quantify PQS and HHQ, using the ion transitions HHQ 244 to 159, d^4-HHQ 248 to 163, PQS 260 to 175, and d^4-PQS 264 to 179; shown in Table E3.
PqsA inhibitors 1-5 were evaluated for their ability to inhibit HHQ and PQS quinolone production in P. aeruginosa strain PA14 (FIG. 6). HHQ and PQS concentrations were determined by LC-MS/MS quantitation relative to deuterated internal standards. 6-Fluoroanthranilate (6FABA), a substrate analogue reported previously to inhibit quinolone production at millimolar concentrations, was used as a positive control. Compounds were initially tested at 1.5 mM concentration, and HHQ and PQS were quantified at 8 and 20 hours, respectively. These time points were selected based on an initial time course study of quinolone production in the absence of inhibitors, with HHQ or PQS production peaking at these respective time points. […] This could be due to differences in cell penetration, stability, and/or target specificity. Finally, because inhibitors of the quinolone quorum sensing pathway should not impact bacterial growth, we confirmed that none of the six inhibitors above inhibited growth over 20 h (FIG. 7A). Encouraged by the ability of anthranilyl-AMS (1) and anthranilyl-AMSN (2) to inhibit HHQ and PQS quinolone production, the activity of these two inhibitors and 6FABA were investigated in greater detail. In untreated controls, HHQ and PQS production peaked at 8 and 20 hours, respectively. Previously reported time course studies have similarly shown that HHQ levels peak at 6-8 hours while PQS levels continue to rise. See, e.g., Deziel et al. (2004) Proc. Natl. Acad. Sci. U.S.A 101, 1339; Kesarwani et al. (2011) PLoS Pathog. 7, e1002192. All three inhibitors were able to decrease quinolone production in a dose- and time-dependent manner (FIG. 2A). […] Such a perturbation might still be sufficient to impact P. aeruginosa virulence in vivo. […] See, e.g., Lesic et al. (2007) PLoS Pathog. 3, e126.

HepG2 cells [2] = assay: Cytotoxicity cell viability assay (CellTiter Glo), HepG2; format: cell-based; details: for toxicity in words, CellTiter Glo, HepG2: HepG2, luminescence readout, up to 1000 μM; for IC50: Homo sapiens, HepG2, 48 hrs, luminescence
Excerpt: Promega Cell Titer-Glo utilizes the ATP dependent conversion of Luciferin to Oxyluciferin by a recombinant Luciferase in order to quantify the number of metabolically active cells in a sample. Quantification is possible because the number of RLU's detected is linearly proportional to the amount of ATP produced by metabolically active cells in culture at the time of lysis. Therefore, the relative cytotoxicity of each compound can be tested by quantifying the amount of ATP present in each microtiter well as compared to control groups. HepG2 and MRC5 were plated at a density of 1500 cells/25 al in well in the assay plate and allowed to settle overnight. 0.1 μL of compounds was then transferred from the source plate, into the cell assay plates. The cells were left to incubate with the compounds for 48 hrs, after which, 25 μL of Promega Cell Titer-Glo was added to each well, and allowed to incubate at room temperature with shaking for 20 minutes. RLU's for each well were then recorded on a BioTek Synergy NEO. DMSO was used as negative control

HepG2 cells [3] = assay: Cell health and viability image-based study (fluorescence microscopy), HepG2; details: for IC50: Homo sapiens, HepG2, imaging; for toxicity in words, imaging, HepG2: up to 1000 μM
Method: The multiparametric assay developed surveys a number of elements of cell health simultaneously. Using a combination of 2 dyes, we are able to simultaneously measure nuclear morphology, membrane integrity and cell proliferation. All measurements are made on live cells after an incubation time of 24H. Hoechst 33342 is used to measure total number of cells, nuclear morphology and cell proliferation. The nuclear impermeable dye Syto17 is used to assess the nuclear membrane integrity by measuring the nuclear translocation of the dye when the membrane gets porous after incubation with a toxic compound. Cells were plated at a density of 1500 cells/25 al in well in a 384 wells plate the day before incubation with the drugs. The following day, 0.1 al of the source plate are added to the assay plate. Then, 25 al of a fluorophores mixture containing Hoechst 33342, Syto17 diluted in EMEM was added to each well. Plates are read after 48 h incubation in the ImageXpress instrument (Molecular Devices) using the appropriate filters. Images are analyzed using an application of MetaXpress software (Molecular Devices) and data are presented using Prism software. Low Signal Control (C23): 5 μM Staurosporine; High Signal Control (C24): DMSO.

[4] = PA14, 8 h, read-out: inhibition of HHQ production
[5] = PA14, 20 h, read-out: inhibition of PQS production
[6] = PA14, read-out: inhibition of HHQ production
[7] = PA14, read-out: inhibition of PQS production
[8] = Hoechst 33342, read-out: Cell Count IC50, HepG2
[9] = Syto17, read-out: Nuclear membrane integrity IC50, HepG2

Row | SMILES | inhibition at 1500 µM [1, 4] [%] | inhibition at 1500 µM [1, 5] [%] | inhibition at 1000 µM [1, 6] [%] | inhibition at 1000 µM [1, 7] [%] | toxicity in words, CellTiter Glo, HepG2 (HepG2 cells [2]) | IC50 (HepG2 cells [2]) [µM] | IC50 (HepG2 cells [3]; [8]) [µM] | IC50 (HepG2 cells [3]; [9]) [µM] | toxicity in words, imaging, HepG2 (HepG2 cells [3]) | dose- and time-dependent decrease of quinolone production, in words ([1]; FIG. 2A)
1 | Nc1ccccc1C(=O)NS(=O)(=O)NC[C@H]1O[C@@H](n2cnc3c(N)ncnc32)[C@H](O)[C@@H]1O [anthranilyl-AMSN, Anthranilyl-AMSN] | 90 | 92 | 84 | 84 | significant toxicity in the tested range | 19.2 | 6 | 56.3 | significant toxicity in the tested range | –
2 | Nc1ccccc1C(=O)NS(=O)(=O)OC[C@H]1O[C@@H](n2cnc3c(N)ncnc32)[C@H](O)[C@@H]1O [anthranilyl-AMS, Anthranilyl-AMS] | 67 | 77 | 47 | 40 | significant toxicity in the tested range | 3.1 | 5.9 | 12.1 | significant toxicity in the tested range | same trend of inhibition, albeit again with lower potency

From patent US10874686B2, “Anthranilyl-adenosinemonosulfamate analogs and uses thereof” (Memorial Sloan-Kettering Cancer Center, priority 2015, dated 2020)
